The source of these data is patent US20070270362A1, “Methods and compositions for prevention or treatment of inflammatory-related diseases and disorders” (The University of Washington, priority 2006, published 2007).

Entries after “also recorded” stand apart in the source; their conditions may differ.

One experiment deals with BAEC or HUVEC monolayer. Put plainly: Lymphocyte adhesion to endothelial cells treated with retracting or apoptosis-inducing agents. It counts as cell-based. The conditions noted are these: for lymphocyte adhesion to EC treated with the agent: BAEC or HUVEC. As to the method: Cells. Jurkat cells and Ramos B cells were obtained from the American Type Culture Collection (ATCC) and were cultured in RPMI (Mediatech, Herndon Va.) supplemented with glutaMAX-1 (Invitrogen, Carlsbad Calif.), 1 mM sodium pyruvate (BioWhittaker, Walkersville Md.), nonessential amino acids (NEAA) (BioWhittaker) and 10% fetal bovine serum (FBS) (Hyclone, Logan Utah). Peripheral blood was obtained from healthy donors with informed consent according to protocols approved by the Human Subjects Review Committee of the University of Washington. PBMC were isolated by Ficoll-Hypaque (Pharmacia, Piscataway, N.J.) gradient centrifugation and washed with PBS. […] HUVEC were cultured on surfaces coated with 2% gelatin (Sigma). BAEC were a gift of Helene Sage (Hope Heart Institute, Seattle Wash.) and were grown in DMEM (Mediatech) supplemented with glutaMAX-1, sodium pyruvate and 8% FBS. […] Adhesion assays. Lymphocytes were labeled with 2.5 mM calcein-AM (Molecular Probes, Eugene, Oreg.) at room temperature for 20-40 min, washed, and resuspended in HBSS with calcium and magnesium (Mediatech) supplemented with 0.1% BSAnd 4 mM HEPES. Lymphocytes were incubated with inhibitors or function-blocking antibodies at 37° C. for 15-30 min and tested for LIA or phorbol ester-stimulated adhesion to EC or to EC matrix for 15-30 min at 37° C. Adhesion was measured by a Cytofluor Series 4000 fluorescence plate reader (PerSeptive Biosystems, Framingham, Mass.). Plates were scanned before and after washing for total and adherent cells, respectively. Statistical significance was deteremined by Student's t-Test. In some cases, EC were labeled with Cell Tracker Orange (Molecular Probes) per manufacturers instructions prior to adhesion. Cells were fixed after adhesion assays and adherent cells were directly visualized by fluorescent microscopy.

The test system of experiment [1] is Jurkat cells or PBMC adhering to cytochalasin D-retracted BAEC or BAEC-derived matrix. Put plainly: Ligand-induced adhesion (LIA) of unstimulated lymphocytes to retracted EC or EC matrix. It counts as cell-based, human. The note with it: for adhesion to retracted BAEC or EC matrix (LIA): Jurkat or PBMC treated with 20 μM inhibitor for 30 min, adhesion 30 min; for ligand-induced cell adhesion: same dose (1 μM) treatment of Jurkat cells. As to the method: Cells. Jurkat cells and Ramos B cells were obtained from the American Type Culture Collection (ATCC) and were cultured in RPMI (Mediatech, Herndon Va.) supplemented with glutaMAX-1 (Invitrogen, Carlsbad Calif.), 1 mM sodium pyruvate (BioWhittaker, Walkersville Md.), nonessential amino acids (NEAA) (BioWhittaker) and 10% fetal bovine serum (FBS) (Hyclone, Logan Utah). Peripheral blood was obtained from healthy donors with informed consent according to protocols approved by the Human Subjects Review Committee of the University of Washington. PBMC were isolated by Ficoll-Hypaque (Pharmacia, Piscataway, N.J.) gradient centrifugation and washed with PBS. HUVEC were isolated and cultured as previously described (Schwartz et al., J Immunol 162: 4842-8, 1999) and were grown in RPMI 1640 with supplemented with 2 mM glutamine, sodium pyruvate, NEAA, 10 mM HEPES, 100 U/ml penicillin, 100 U/ml streptomycin, 250 ng/ml fungizone (BioWhittaker), […] heparin (Sigma, St. Louis, Mo.), bovine hypothalamic extract (gift of E. Raines, University of Washington, Seattle, Wash.), and 10% bovine calf serum supplemented with iron (HyClone). HUVEC were cultured on surfaces coated with 2% gelatin (Sigma). BAEC were a gift of Helene Sage (Hope Heart Institute, Seattle Wash.) and were grown in DMEM (Mediatech) supplemented with glutaMAX-1, sodium pyruvate and 8% FBS. EC matrix was prepared by lysis of a confluent layer of EC with 20 mM NH4OH at 37° C. for 5 min (Kato and Gospodarowicz, J Cell Biol 100: 486-95, 1985) and blocked briefly with growth medium. Adhesion assays. Lymphocytes were labeled with 2.5 mM calcein-AM (Molecular Probes, Eugene, Oreg.) at room temperature for 20-40 min, washed, and resuspended in HBSS with calcium and magnesium (Mediatech) supplemented with 0.1% BSAnd 4 mM HEPES. Lymphocytes were incubated with inhibitors or function-blocking antibodies at 37° C. for 15-30 min and tested for LIA or phorbol ester-stimulated adhesion to EC or to EC matrix for 15-30 min at 37° C. Adhesion was measured by a Cytofluor Series 4000 fluorescence plate reader (PerSeptive Biosystems, Framingham, Mass.). Plates were scanned before and after washing for total and adherent cells, respectively. Statistical significance was deteremined by Student's t-Test. In some cases, EC were labeled with Cell Tracker Orange (Molecular Probes) per manufacturers instructions prior to adhesion. Cells were fixed after adhesion assays and adherent cells were directly visualized by fluorescent microscopy. Underlying fibronectin fibrils were visualized with polyclonal anti-bovine fibronectin antibody (Accurate), followed by Alexa-568 conjugated secondary antibody (Molecular Probes).

The test system of experiment [2] is PBMC migrating through confluent HUVEC monolayer. Put plainly: Transendothelial migration assay. It counts as cell-based, human. As to the method:
Flow cytometry. Integrin subunit expression levels were analyzed by a FACScan (Becton Dickinson) instrument. Analyzed cells were incubated in integrin antibodies for 30 min, followed by incubation with fluorescein-labeled secondary antibodies for 30 mins. Migration Assays. Calcein-labeled PBMC were treated with purvanalol for 15 min, then added to a confluent monolayer of HUVEC grown on collagen-coated transwell (3 micron pore size, Costar-Corning). PBMC were allowed to migrate for 4 hours at 37° C. Number of migrated cells in bottom chamber was counted. […] In addition, in some experiments, equal numbers of PBMC were allowed to adhere to HUVEC, then treated with purvanaol, to verify that differences in migration were not simply due to differences in initial adhesion. All assays were performed in triplicate. Integrity of the endothelial monolayer was verified by measurements of transendothelial resistance before and after migration assay.

Experiment [3] deals with retinoblastoma protein (Rb), Cdk2 specific site (T821) and Cdk4 specific site (249/252). In words: Western blot of Rb phosphorylation with phospho-specific antibodies. The note with it: Jurkat cells, 20 μM, 30 min. It counts as cell-based. A general note: Immunoblotting shows a protein as a band on a membrane.
Procedure: Western Blot Analysis. Equal numbers of Jurkat cells (1×10^6) were lysed in buffer containing 50 mM Hepes, pH 7.5, 10 mM NaCl, 5 mM MgCl2, 1 mM EGTA, 1 μg/ml leupeptin, 1 μg/ml aprotinin, 1% triton, and 10% glycerol and Complete Mini Protease Inhibitor Cocktail (Roche). Equal amounts of protein were separated by SDS-PAGE, transferred to Immobilon and blocked for 1 hour. Blots were incubated with primary antibody for 1 hour, followed by peroxidase-conjugated secondary antibody for 1 hour and then developed with Enhanced Chemiluminescence (ECL, Amersham). […] Anti-Cdk2 and anti-Cdk4 antibodies were obtained from eBioscience.
The subject of a further experiment is Jurkat cells. The note with it: 1 μM treatment of Jurkat cells; previously reported; cited from earlier work.

Take Thrombin: the endothelial cell retraction result in the experiment with BAEC or HUVEC monolayer is given as “caused endothelial cell retraction”. In addition, the “increase of Jurkat cell adhesion to treated BAEC” value with BAEC or HUVEC monolayer (Jurkat cells, BAEC) is recorded as 4-5 fold.

In the case of `O=C(O)CN(CCN(CC(=O)O)CC(=O)O)CC(=O)O` [EDTA], the endothelial cell retraction result in the experiment with BAEC or HUVEC monolayer was “caused endothelial cell retraction”.

As to `CC(C)[C@H](CO)Nc1nc(Nc2cc(N)cc(Cl)c2)c2ncn(C(C)C)c2n1` [aminopurvalanol A], the “adhesion to retracted BAEC or EC matrix (LIA)” value (from here on “adhesion … (LIA)”) in experiment [1] is “block ligand-induced adhesion; also recorded: significantly reduced”.

As for latrunculin, the endothelial cell retraction entry in the experiment with BAEC or HUVEC monolayer was “caused endothelial cell retraction”.

As for `CC(C)[C@H](CO)Nc1nc(Nc2cccc(Cl)c2)c2ncn(C(C)C)c2n1` [purvalanol A], the “adhesion … (LIA)” value in experiment [1] is given as “block ligand-induced adhesion; also recorded: significantly reduced”. Besides, the “initial adhesion of PBMC to confluent endothelial cells” value in experiment [2] is on record as “did not affect initial adhesion”. In addition, the “PBMC migration through confluent endothelial monolayer” value in experiment [2] (HUVEC on transwell) is recorded as “inhibited”. Also, the “phosphorylation of Rb at Cdk2 site (T821) and Cdk4 site (249/252)” value in experiment [3] is given as “block Rb phosphorylation”.

On to `COc1cccc(-c2cc(=O)c3ccccc3o2)c1N` [PD98059], for which, in experiment [1], the “inhibition of LIA by inhibitors of other pathways” value (shortened to “inhibition of LIA”) is on record as “did not inhibit LIA”.

Turning to `COC(=O)Nc1nc2cc(C(=O)c3cccs3)ccc2[nH]1` [nocadozole], in the experiment on BAEC or HUVEC monolayer, the endothelial cell retraction entry is “failed to induce retraction” and the “lymphocyte adhesion to EC treated with the agent” value (shortened to “lymphocyte adhesion to EC treated”) is given as “failed to produce comparable lymphocyte adhesion”.

Take `CC(=O)O[C@H]1C(=O)[C@@]2(C)[C@H]([C@H](OC(=O)c3ccccc3)[C@]3(O)C[C@H](OC(=O)[C@H](O)[C@@H](NC(=O)c4ccccc4)c4ccccc4)C(C)=C1C3(C)C)[C@]1(OC(C)=O)CO[C@@H]1C[C@@H]2O` [paclitaxel]: in the experiment with BAEC or HUVEC monolayer, the endothelial cell retraction entry is listed as “failed to induce retraction” and the “lymphocyte adhesion to EC treated” value is recorded as “failed to produce comparable lymphocyte adhesion”.

`C[C@@H](N)[C@H]1CC[C@H](C(=O)Nc2ccncc2)CC1` [Y-7632]: the “inhibition of LIA” value in experiment [1] was “did not inhibit LIA”.

Regarding `CN[C@@H]1C[C@H]2O[C@@](C)([C@@H]1OC)n1c3ccccc3c3c4c(c5c6ccccc6n2c5c31)C(=O)NC4` [staurosporine], the endothelial cell retraction entry in the experiment on BAEC or HUVEC monolayer is listed as “caused endothelial cell retraction”.

As for `CC[C@H](CO)Nc1nc(NCc2ccccc2)c2ncn(C(C)C)c2n1` [roscovitine], the “adhesion … (LIA)” value in experiment [1] was “block ligand-induced adhesion; also recorded: significantly reduced”.

In the case of `C=C1[C@@H](C)[C@H]2[C@H](Cc3ccccc3)NC(=O)[C@]23[C@H](OC(C)=O)/C=C/[C@@](C)(O)C(=O)[C@@H](C)C/C=C/[C@H]3[C@@H]1O` [cytochalasin D], the ligand-induced cell adhesion result is “Not affected by cytochalasin D” in experiment [1] and “no affect” in experiment [1] (listed as cytochalasin). In addition, in the experiment with Jurkat cells, the “phorbol ester-stimulated cell adhesion” value is “Inhibited by cytochalasin D”. Moreover, the endothelial cell retraction entry in the experiment on BAEC or HUVEC monolayer is reported as “caused endothelial cell retraction”. The “PBMC adhesion to treated EC versus untreated EC” value with BAEC or HUVEC monolayer (PBMC) is reported as 5-6 fold.

Turning to `O=c1c(-c2ccc(O)cc2)coc2cc(O)cc(O)c12` [genistein], in experiment [1], the “inhibition of LIA” value was “did not inhibit LIA”.

For the compound `COc1cc2c(c(OC)c1OC)-c1ccc(OC)c(=O)cc1[C@@H](NC(C)=O)CC2` [colchicine], in the experiment on BAEC or HUVEC monolayer, the endothelial cell retraction result was “failed to induce retraction” and the “lymphocyte adhesion to EC treated” value is recorded as “failed to produce comparable lymphocyte adhesion”.

Turning to `CC[C@]1(O)C[C@@H]2CN(CCc3c([nH]c4ccccc34)[C@@](C(=O)OC)(c3cc4c(cc3OC)N(C)[C@H]3[C@@](O)(C(=O)OC)[C@H](OC(C)=O)[C@]5(CC)C=CCN6CC[C@]43[C@@H]65)C2)C1` [vinblastine], in the experiment with BAEC or HUVEC monolayer, the endothelial cell retraction entry is listed as “failed to induce retraction” and the “lymphocyte adhesion to EC treated” value is listed as “failed to produce comparable lymphocyte adhesion”.
